Where a name gives a salt, the structure may show the parent alone. Read-outs that look alike come from different tables or passages of the source.
Tests used:
[1] = Cardiovascular activity in anaesthetised dogs; assay type: in vivo; details: amphetamine injected intravenously
Excerpt: 5. CARDIOVASCULAR ACTIVITY

[2] = Toxicity, mice in groups (death rate); details: mouse, in vivo, 4 hours after treatment, read-out: percentage death rate
Protocol: (§1) Batches of 10 mice are placed in boxes covered with grids (20 × 10 × 10 cm), either isolated individually, or in groups of 10. The test compound is administered orally to them. The death rate is noted 4 hours after the treatment.
(§2) Tables IV and V below give the percentage death rate for the products of Examples XXIV and XXVII compared with d-amphetamine sulphate.

[3] = Toxicity, isolated mice (death rate); details: mouse, in vivo, 4 hours after treatment, read-out: percentage death rate
Protocol: as §1, §2

[4] = Anorexigenic activity in dogs; assay type: in vivo, Beagle dogs; details: Canis lupus familiaris, read-out: percentage inhibition of consuming food
Protocol: 2. ANOREXIGENIC ACTIVITY IN DOGS
Beagle dogs are conditioned to take their food over the course of 5 minutes once per day. The test compound is administered orally in the form of a single dose of 10 mg/kg one hour before the food is presented. The amount of food ingested is measured at regular intervals.
Table II gives the percentage inhibition of consuming food as a function of the time after treatment.

[5] = Potentiation of amphetamine: stereotypies in rats after d-amphetamine sulphate; assay type: in vivo; details: 30 min before 5 mg/kg d-amphetamine sulphate i.p., over 3 hours, maximum 24
Protocol: 1. POTENTIATION OF AMPHETAMINE
The test compound is administered intraperitoneally to rats 30 minutes before the intraperitoneal injection of 5 mg/kg of d-amphetamine sulphate. The intensity of the stereotypies over a period of 3 hours is assessed by attributing a number from 0 to 4. Table I indicates the sum of the assessments as a function of the doses administered. The maximum assessment is 24.

[6] = Beagle dogs, 10 mg/kg oral, 1 hr after treatment
[7] = Beagle dogs, 10 mg/kg oral, 2 hrs after treatment
[8] = Beagle dogs, 10 mg/kg oral, 4 hrs after treatment
[9] = Beagle dogs, 10 mg/kg oral, 24 hrs after treatment

SMILES | inhibition in vivo at 10 mg/kg ([4]; po, 1 h) [%] | inhibition in vivo at 10 mg/kg ([4]; po, 2 h) [%] | sum of the assessments of intensity of stereotypies ([5]; 4 mg/kg intraperitoneal) | sum of the assessments of intensity of stereotypies ([5]; 8 mg/kg intraperitoneal) | sum of the assessments of intensity of stereotypies ([5]; 16 mg/kg intraperitoneal) | sum of the assessments of intensity of stereotypies ([5]; 1 mg/kg intraperitoneal) | inhibition in vivo at 10 mg/kg [4, 6] [%] | inhibition in vivo at 10 mg/kg [4, 7] [%] | sum of the assessments of intensity of stereotypies ([5]; 2 mg/kg intraperitoneal) | sum of the assessments of intensity of stereotypies ([5]; 32 mg/kg intraperitoneal) | also measured
CC(N)Cc1ccccc1 (stereo not drawn) [Amphetamine, d-amphetamine sulphate, reference compound] |  |  |  |  |  |  |  |  |  |  | pulmonary and systemic hypertension [1]: causes pulmonary and systemic hypertension; mortality at 4 h ([2]; 4 mg/kg oral): 0%; mortality at 4 h ([2]; 8 mg/kg oral): 20%; mortality at 4 h ([2]; 16 mg/kg oral): 100%; mortality at 4 h ([2]; 32 mg/kg oral): 100%; mortality at 4 h ([3]; 16 mg/kg oral): 0%; mortality at 4 h ([3]; 32 mg/kg oral): 0%; mortality at 4 h ([3]; 64 mg/kg oral): 10%; mortality at 4 h ([3]; 128 mg/kg oral): 100%
CC1(C)NC(C2CC2)CC1c1ccccc1.Cl (stereo not shown) [Example XXI, 2-cyclopropyl-4-phenyl-5,5-dimethylpyrrolidine hydrochloride] | 100 | 100 | 10 | 11 | 13 |  |  |  |  |  | inhibition in vivo at 10 mg/kg ([4]; po, 4 h): 70%; inhibition in vivo at 10 mg/kg ([4]; po, 24 h): 0%
CC1NC(C2CC2)CC1c1ccccc1.Cl (stereo not shown) [Example XXII, 2-cyclopropyl-4-phenyl-5-methyl-pyrrolidine hydrochloride] | 50 | 50 | 9 |  | 12 | 8 |  |  |  |  | inhibition in vivo at 10 mg/kg ([4]; po, 4 h): 0%
CC1(C)NC(C2CC2)CC1c1ccc(Cl)cc1.Cl (stereo not shown) [Example XXIII, 2-cyclopropyl-4-(p-chlorophenyl)-5,5-dimethyl-pyrrolidine hydrochloride] |  |  |  | 18 |  |  | 100 | 100 | 12 | 17 | inhibition in vivo at 10 mg/kg [4, 8]: 100%; inhibition in vivo at 10 mg/kg [4, 9]: 50%
CC1(C)NC(C2CC2)CC1c1cccc(C(F)(F)F)c1.Cl (stereo not shown) [Example XXX, 2-cyclopropyl-4-(m-trifluoromethylphenyl)-5,5-dimethylpyrrolidine hydrochl oride] |  |  | 24 |  | 24 | 20 | 0 | 0 |  |  | 
C#CCN1C(C)C(c2ccc(Cl)c(Cl)c2)CC1C1CC1.Cl (stereo not shown) [Example XXXV, N-propargyl-2-cyclopropyl-4-(3',4'-dichlorophenyl)-5-methylpyrrolidine hydrochloride] | 60 | 60 | 23 |  | 23 | 18 |  |  |  |  | inhibition in vivo at 10 mg/kg ([4]; po, 4 h): 60%; inhibition in vivo at 10 mg/kg ([4]; po, 24 h): 0%
CC1NC(C2CC2)CC1c1cccc(C(F)(F)F)c1.Cl (stereo not shown) [XXIX, 2-cyclopropyl-4-(m-trifluoromethylphenyl)-5-methyl-pyrrolidine hydrochloride] |  |  | 22 |  | 16 | 17 | 0 | 0 |  |  | 
CC1NC(C2CC2)CC1c1cccc(Cl)c1.Cl (stereo not shown) [XXV, 2-cyclopropyl-4-(m-chlorophenyl)-5-methylpyrrolidine hydrochloride] |  |  |  | 23 |  |  | 50 | 50 | 18 |  | inhibition in vivo at 10 mg/kg [4, 8]: 50%; inhibition in vivo at 10 mg/kg [4, 9]: 0%; sum of the assessments of intensity of stereotypies ([5]; 0.5 mg/kg intraperitoneal): 13
CC1(C)NC(C2CC2)CC1c1cccc(Cl)c1.Cl (stereo not shown) [XXVI, 2-cyclopropyl-4-(m-chlorophenyl)-5,5-dimethylpyrrolidine hydrochloride] |  |  | 14 |  | 19 | 12 | 60 | 60 |  |  | inhibition in vivo at 10 mg/kg [4, 8]: 60%; inhibition in vivo at 10 mg/kg [4, 9]: 0%
CC1(C)NC(C2CC2)CC1c1cccc(F)c1.Cl (stereo not shown) [XXVIII, 2-cyclopropyl-4-(m-fluorophenyl)-5,5-dimethylpyrrolidine hydrochloride] |  |  | 17 |  | 16 | 16 | 100 | 100 |  |  | inhibition in vivo at 10 mg/kg [4, 8]: 100%; inhibition in vivo at 10 mg/kg [4, 9]: 0%
COc1ccc(C2CC(C3CC3)NC2C)cc1OC.Cl (stereo not shown) [XXXI, 2-cyclopropyl-4-(3',4'-dimethoxyphenyl)-5-methylpyrrolidine hydrochloride] |  |  |  | 24 |  |  | 0 | 0 | 10 | 23 | 
CC1(C)NC(C2CC2)CC1c1ccc2c(c1)OCO2 (stereo not shown) [XXXII, 2-cyclopropyl-4-(3',4'-methylenedioxyphenyl)-5,5-dimethylpyrrolidine hydrochloride] | 100 | 100 |  | 24 |  |  |  |  | 18 | 23 | inhibition in vivo at 10 mg/kg ([4]; po, 4 h): 100%; inhibition in vivo at 10 mg/kg ([4]; po, 24 h): 0%
Cc1ccc(C2CC(C3CC3)NC2C)cc1.Cl (stereo not shown) [XXXIII, 2-cyclopropyl-4-(p-methylphenyl)-5-methyl-pyrrolidine hydrochloride] | 0 | 0 |  | 19 |  |  |  |  | 12 | 24 | 
CC1C(c2ccc(Cl)c(Cl)c2)CC(C2CC2)N1Cc1ccccc1.Cl (stereo not shown) [XXXIV, N-benzyl-2-cyclopropyl-4-(3',4'-dichlorophenyl)-5-methylpyrrolidine hydrochloride] |  |  |  | 21 |  |  | 100 | 100 | 20 | 15 | inhibition in vivo at 10 mg/kg [4, 8]: 100%; inhibition in vivo at 10 mg/kg [4, 9]: 50%; inhibition in vivo at 10 mg/kg ([4]; Beagle dogs, 10 mg/kg oral, 48 hrs after treatment): 0%
C#CCN1C(C)C(c2ccc(Cl)cc2)CC1C1CC1.Cl (stereo not shown) [XXXVI, N-propargyl-2-cyclopropyl-4-(p-chlorophenyl)-5-methylpyrrolidine hydrochloride] | 0 | 0 |  | 24 |  |  |  |  |  | 24 | 
CC1C(c2ccc(Cl)cc2)CC(C2CC2)N1CCO.Cl (stereo not shown) [XXXVII, N-hydroxyethyl-2-cyclopropyl-4-(p-chlorophenyl)-5-methylpyrrolidine hydrochloride] |  |  |  |  | 24 |  | 0 | 0 | 12 | 24 | 
CCN1C(C)C(c2cccc(C(F)(F)F)c2)CC1C1CC1 (stereo not shown) [XXXVIII, N-ethyl-2-cyclopropyl-4-(m-trifluoromethylphenyl)-5-methylpyrrolidine] | 0 | 0 | 24 | 24 |  | 20 |  |  |  |  | 
